Experiments:
Assay type in all cases: in vivo
[1] = system: pigweed (Amaranthus retroflexus); experiment: Test A preemergence; conditions: Amaranthus retroflexus, pre-emergence, 240 h, 0 to 100 scale where 0 is no effect and 100 is complete control, read-out: Pigweed plant response rating
[2] = system: barnyardgrass (Echinochloa crus-galli); experiment: Test A preemergence; conditions: Echinochloa crus-galli, pre-emergence, 240 h, 0 to 100 scale where 0 is no effect and 100 is complete control, read-out: Barnyardgrass plant response rating
Method in brief: (§1)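 Visual injury, scored on a 0–100 scale relative to untreated controls, was recorded about 10 d after application. Treatments were a preemergence soil spray over planted seeds or a postemergence spray on plants at the one- to two-leaf stage, 2 to 10 cm tall, all in loam soil–sand blend in the greenhouse.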

[3] = system: ryegrass, Italian (Italian ryegrass, Lolium multiflorum); experiment: Test A preemergence; conditions: Lolium multiflorum, pre-emergence, 240 h, 0 to 100 scale where 0 is no effect and 100 is complete control, read-out: Ryegrass, Italian plant response rating
Method in brief: as §1

Kochia (Kochia scoparia) [4] = experiment: Test A preemergence; conditions: Bassia scoparia, pre-emergence, 240 h, 0 to 100 scale where 0 is no effect and 100 is complete control, read-out: Kochia plant response rating
Method in brief: as §1

[5] = system: giant foxtail (Setaria faberii); experiment: Test A preemergence; conditions: Setaria faberi, pre-emergence, 240 h, 0 to 100 scale where 0 is no effect and 100 is complete control, read-out: Foxtail, Giant plant response rating
Method in brief: as §1

[6] = system: ragweed (common ragweed, Ambrosia elatior); experiment: Test A preemergence; conditions: Ambrosia artemisiifolia, pre-emergence, 240 h, 0 to 100 scale where 0 is no effect and 100 is complete control, read-out: Ragweed plant response rating
Method in brief: as §1

rice (Oryra sativa) = experiment: Test B flooded paddy test; conditions: Oryza sativa, 250 g ai/ha, Flood; 0 to 100 scale where 0 is no effect and 100 is complete control; read-out: Rice plant response rating
Method in brief: (§2)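 Response scored visually against untreated controls, 0 = no effect and 100 = complete control, 13–15 d after treatment in the greenhouse. Compounds added to paddy water held 3 cm above soil surface. Treatment given at 2-leaf stage.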

[7] = system: barnyardgrass (Echinochloa crus-galli); experiment: Test B flooded paddy test; conditions: Echinochloa crus-galli, 250 g ai/ha, Flood; 0 to 100 scale where 0 is no effect and 100 is complete control; read-out: Barnyardgrass plant response rating
Method in brief: as §2

[8] = system: sedge, umbrella (small-flower umbrella sedge, Cyperus difformis); experiment: Test B flooded paddy test; conditions: Cyperus difformis, 250 g ai/ha, Flood; 0 to 100 scale where 0 is no effect and 100 is complete control; read-out: Sedge, Umbrella plant response rating
Method in brief: as §2

[9] = system: ducksalad (Heteranthera limosa); experiment: Test B flooded paddy test; conditions: Heteranthera limosa, 250 g ai/ha, Flood; 0 to 100 scale where 0 is no effect and 100 is complete control; read-out: Ducksalad plant response rating
Method in brief: as §2

[10] = system: pigweed (Amaranthus retroflexus); experiment: Test A postemergence; conditions: Amaranthus retroflexus, post-emergence, 240 h, read-out: Pigweed plant response rating (0 to 100 scale)
Method in brief: as §1

[11] = system: barnyardgrass (Echinochloa crus-galli); experiment: Test A postemergence; conditions: Echinochloa crus-galli, post-emergence, 240 h, read-out: Barnyardgrass plant response rating (0 to 100 scale)
Method in brief: as §1

[12] = system: blackgrass (Alopecurus myosuroides); experiment: Test A postemergence; conditions: Alopecurus myosuroides, post-emergence, 240 h, read-out: Blackgrass plant response rating (0 to 100 scale)
Method in brief: as §1

[13] = system: Galium (catchweed bedstraw, Galium aparine); experiment: Test A postemergence; conditions: Galium, post-emergence, 240 h, read-out: Galium plant response rating (0 to 100 scale)
Method in brief: as §1

[14] = system: ryegrass, Italian (Italian ryegrass, Lolium multiflorum); experiment: Test A postemergence; conditions: Lolium multiflorum, post-emergence, 240 h, read-out: Ryegrass, Italian plant response rating (0 to 100 scale)
Method in brief: as §1

Kochia (Kochia scoparia) [15] = experiment: Test A postemergence; conditions: Bassia scoparia, post-emergence, 240 h, read-out: Kochia plant response rating (0 to 100 scale)
Method in brief: as §1

[16] = system: wheat (Triticum aestivum); experiment: Test A postemergence; conditions: Triticum aestivum, post-emergence, 240 h, Postemergence, 31 g ai/ha; 0 is no effect, 100 is complete control; read-out: Wheat plant response rating (0 to 100 scale)
Method in brief: as §1

[17] = system: giant foxtail (Setaria faberii); experiment: Test A postemergence; conditions: Setaria faberi, post-emergence, 240 h, read-out: Foxtail, Giant plant response rating (0 to 100 scale)
Method in brief: as §1

[18] = system: ragweed (common ragweed, Ambrosia elatior); experiment: Test A postemergence; conditions: Ambrosia artemisiifolia, post-emergence, 240 h, read-out: Ragweed plant response rating (0 to 100 scale)
Method in brief: as §1

corn (Zea mays) = experiment: Test A postemergence; conditions: Zea mays, post-emergence, 240 h, read-out: Corn plant response rating (0 to 100 scale)
Method in brief: as §1

[19] = 125 g ai/ha, preemergence, visual injury rating, approximately 10 d
[20] = 125 g ai/ha, postemergence, visual injury vs untreated controls after approx. 10 d, 0 = no effect, 100 = complete control
[21] = Postemergence, 31 g ai/ha, 0 is no effect, 100 is complete control

`O=C1NC[C@H](c2ccc(Cl)c(F)c2)[C@H]1C(=O)Nc1cccc(F)c1F` [Compound 1262] gave a pest or weed control at 31 g/ha ([1]; 31 g ai/ha, Preemergence) of 0%, a pest or weed control at 125 g/ha [1, 19] of 50% and a pest or weed control at 31 g/ha ([2]; 31 g ai/ha, Preemergence) of 70%. For the same compound, the pest or weed control at 125 g/ha [2, 19] was 90%, the pest or weed control at 31 g/ha ([3]; 31 g ai/ha, Preemergence) was 0% and the pest or weed control at 125 g/ha [3, 19] was 0%. For the same compound, the pest or weed control at 31 g/ha (Kochia (Kochia scoparia) [4]; 31 g ai/ha, Preemergence) was 20%, the pest or weed control at 125 g/ha (Kochia (Kochia scoparia) [4]; [19]) was 60% and the pest or weed control at 31 g/ha ([5]; 31 g ai/ha, Preemergence) was 90%. For the same compound, the pest or weed control at 125 g/ha [5, 19] was 90%, the pest or weed control at 31 g/ha ([6]; 31 g ai/ha, Preemergence) was 0% and the pest or weed control at 125 g/ha [6, 19] was 0%. For the same compound, the pest or weed control at 250 g/ha (rice (Oryra sativa)) was 10%, the pest or weed control at 250 g/ha [7] was 65% and the pest or weed control at 250 g/ha [8] was 0%. For the same compound, the pest or weed control at 250 g/ha [9] was 100%, the pest or weed control at 125 g/ha [10, 20] was 70% and the pest or weed control at 31 g/ha [10, 21] was 30%. It also gave a pest or weed control at 125 g/ha [11, 20] of 90%, a pest or weed control at 31 g/ha [11, 21] of 70% and a pest or weed control at 125 g/ha [12, 20] of 50%. It also gave a pest or weed control at 31 g/ha [12, 21] of 0%, a pest or weed control at 125 g/ha [13, 20] of 70% and a pest or weed control at 31 g/ha [13, 21] of 30%. The pest or weed control at 125 g/ha [14, 20] was 20%, the pest or weed control at 31 g/ha [14, 21] was 0% and the pest or weed control at 125 g/ha (Kochia (Kochia scoparia) [15]; [20]) was 50%. The pest or weed control at 31 g/ha (Kochia (Kochia scoparia) [15]; [21]) was 20%, the plant injury at 31 g/ha [16] was 0% and the pest or weed control at 125 g/ha [17, 20] was 80%. The pest or weed control at 31 g/ha [17, 21] was 70%, the pest or weed control at 125 g/ha [18, 20] was 30% and the pest or weed control at 31 g/ha [18, 21] was 0%. For the same compound, the plant injury at 125 g/ha (corn (Zea mays); [20]) was 60% and the plant injury at 31 g/ha (corn (Zea mays); [21]) was 20%.
